Test results published in US9878007B2, “Syndecan peptides and polypeptides as inhibitors of vascular endothelial growth factor receptor-2 (VEGFR2) and very late antigen-4 (VLA-4)” (Wisconsin Alumni Research Foundation, priority 2015, dated 2018).
No end group written: not given here.

How the values were obtained:
HMEC-1 cells [1] = assay: Transwell migration / invasion assay of HMEC-1 cells; type: cell-based; conditions: 16 hr
Protocol: FIGS. 8A-H. HPSE mediated the Sdc1-coupled VEGFR2 complex in endothelial cells induces angiogenesis. (FIG. 8A) Lysates from HPSE^low, HPSE^high and HMEC-1 cells are probed by immunoblotting for expression of HPSE. (FIG. 8B) HMEC-1 cells were seeded at equal density and grown in serum-free media for 24 hr in the absence or presence of 125 μg/ml of the HPSE inhibitor SST0001. After 24 hr, conditioned media were harvested, and the level of shed Sdc1 in the conditioned medium from each condition was determined by immunoblotting. (FIG. 8C) HMEC-1 cell lysate was incubated overnight with glutathione beads coated with GST or GST-S1ED. Capture of VLA-4 or VEGFR2 was detected by immunoblotting. (FIG. 8D) HMEC-1 cells were plated on IIICS for 3 hr and double stained for VLA-4 and Sdc1, VEGFR2 and Sdc1, or VLA-4 and VEGFR2. (FIG. 8E) HMEC-1 cells were treated with DMSO, VLA-4 blocking antibody P1H4, β1-integrin blocking antibody mAb13, 10 μg/ml MMP9 blocking antibody, 125 μg/ml HPSE inhibitor SST0001, Vandetanib, VEGFR2 blocking antibody, 30 μM S1ED^210-233 or 30 μM S1ED^214-240 and then plated on IIICS. Images were taken from random field with 200× magnification for counting attached and spread cells. (FIG. 8F) HMEC-1 cells were plated on IIICS in the presence of 10 μM of S1ED^210-236, S1ED^210-233, S1ED^215-240, and S1ED^214-240. Lysates were probed on immunoblots with antibodies against pY^1175 VEGFR2 and VEGFR2. (FIG. 8G) Transwell migration assays towards IIICS (for 16 hr) were performed for HMEC-1 cells in the presence of P1H4, SST0001, Anti-MMP9, Vandetanib, S1ED^210-236, S1ED^210-233, and S1ED^214-240. Images were taken from random field with 200× magnification for counting migrated cells. (FIG. 8H) A 96-well plate coated with 50 μl Matrigel containing 100 μg/ml IIICS per well was solidified at 37° C. for 2 hrs. […]
The bottom chambers of Transwell filter chambers (8 μm pores; Corning) were coated with 40 μg/ml of FN. […] Cells from at least five random fields were counted.

CAG myeloma cells = assay: Cell spreading / attachment assay of CAG myeloma cells on FN or VCAM-1; type: cell-based, human; conditions: 0.3 μM peptide; for induction of HPSE^low cell spreading by S1ED peptides: on VCAM-1
Protocol: Nitrocellulose-coated slides were coated for 2 hr at 37° C. with 40 μg/ml FN (kindly provided by Dr. Donna Peters, University of Wisconsin-Madison) or 5 μg/ml recombinant VCAM-1/Fc chimera (R&D Systems) in calcium and magnesium-free PBS (CMF-PBS; 135 mM NaCl, 2.7 mM KCl, 10.2 mM Na2HPO4-7H20 and 1.75 mM KH2PO4, pH7.4). Slides were blocked for 1 hr at 37° C. with RPMI 1640 containing 1% heat-denatured BSA (plating medium). Cells in plating medium were allowed to attach and spread for 2.5 hr at 37° C. Slides were fixed in 4% EM grade paraformaldehyde (Electron Microscopy Sciences) in CMF-PBS and labeled for 30 min in 0.13 μM rhodamine phalloidin (Invitrogen) in CMF-PBS. Coverslips were mounted in non-fluorescing mounting medium (Immumount; Thermo Shandon) and allowed to dry. All images were acquired with a Nikon Microphot FX microscope using a 20× objective (Nikon; Ex 541-551, DM 580, Barrier 590), Photometric CoolSnap ES camera, and version 7.7.3.0 Metamorph© Imaging software (Molecular Devices). All images represent results from triplicate wells and at least three independent experiments.

HMEC-1 cells [2] = assay: In vitro tube formation assay of HMEC-1 cells on Matrigel; type: cell-based; conditions: 24 hrs, 10 μM peptides
Protocol: FIGS. 8A-H. HPSE mediated the Sdc1-coupled VEGFR2 complex in endothelial cells induces angiogenesis. (FIG. 8A) Lysates from HPSE^low, HPSE^high and HMEC-1 cells are probed by immunoblotting for expression of HPSE. (FIG. 8B) HMEC-1 cells were seeded at equal density and grown in serum-free media for 24 hr in the absence or presence of 125 μg/ml of the HPSE inhibitor SST0001. After 24 hr, conditioned media were harvested, and the level of shed Sdc1 in the conditioned medium from each condition was determined by immunoblotting. (FIG. 8C) HMEC-1 cell lysate was incubated overnight with glutathione beads coated with GST or GST-S1ED. Capture of VLA-4 or VEGFR2 was detected by immunoblotting. (FIG. 8D) HMEC-1 cells were plated on IIICS for 3 hr and double stained for VLA-4 and Sdc1, VEGFR2 and Sdc1, or VLA-4 and VEGFR2. (FIG. 8E) HMEC-1 cells were treated with DMSO, VLA-4 blocking antibody P1H4, β1-integrin blocking antibody mAb13, 10 μg/ml MMP9 blocking antibody, 125 μg/ml HPSE inhibitor SST0001, Vandetanib, VEGFR2 blocking antibody, 30 μM S1ED^210-233 or 30 μM S1ED^214-240 and then plated on IIICS. Images were taken from random field with 200× magnification for counting attached and spread cells. (FIG. 8F) HMEC-1 cells were plated on IIICS in the presence of 10 μM of S1ED^210-236, S1ED^210-233, S1ED^215-240, and S1ED^214-240. Lysates were probed on immunoblots with antibodies against pY^1175 VEGFR2 and VEGFR2. (FIG. 8G) Transwell migration assays towards IIICS (for 16 hr) were performed for HMEC-1 cells in the presence of P1H4, SST0001, Anti-MMP9, Vandetanib, S1ED^210-236, S1ED^210-233, and S1ED^214-240. Images were taken from random field with 200× magnification for counting migrated cells. (FIG. 8H) A 96-well plate coated with 50 μl Matrigel containing 100 μg/ml IIICS per well was solidified at 37° C. for 2 hrs. HMEC-1 cells (2.5×10^4 cells/well) were seeded into the plate and cultured in media containing VEGF, SST0001, 10 μM of S1ED^210-236, S1ED^210-233, S1ED^215-240, and S1ED^214-240 for 24 hrs. Enclosed capillary networks of tubes were taken from random field with 200× magnification.

| Substance | invasion of HMEC-1 cells (HMEC-1 cells [1]) | rescue of HPSE^high spreading blocked by MMP9 blocking antibody (CAG myeloma cells; on FN) | rescue of HPSE^high spreading blocked by Vandetanib (CAG myeloma cells; on FN, 1 μM Vandetanib) | induction of HPSE^low cell spreading by S1ED peptides (CAG myeloma cells) | tube formation by HMEC-1 cells (HMEC-1 cells [2]) |
| --- | --- | --- | --- | --- | --- |
| DFTFETSGENTAVVAVEPDRRNQSPVD [S1ED^210-236] | all block invasion | rescued spreading in the presence of MMP9 inhibitor | fails to rescue spreading blocked by Vandetanib | retains full activity | blocks tube formation |
| S1ED^210-233: syndecan-1 ectodomain peptide, residues 210-233 (SEQ ID NO: 4) (DFTFETSGENTAVVAVEPDRRNQS) | all block invasion | – | – | do not | blocks tube formation |
